# In the supplement of paper PMC5412046:
# Counter-ions that a name gives are not always drawn.
# Assays:
# SB.msgc-1 [1] = assay: area under the dose-response curve of % viability (trapezoidal, 11 doses) (% viability x log10 concentration); higher = less cytotoxic; details: SB.msgc-1 (sporadic gastric cancer)
# In short: (§1)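 A pintool delivered 23 nL of compound in DMSO to 1536-well plates holding 500 hereditary or sporadic patient-derived gastric cancer cells in 5 μL medium per well, at 11 concentrations in threefold steps. Following 48 h of exposure, cells were treated with CellTiter-Glo for 30 min at room temperature, and plates were read for luminescence on a ViewLux. The reported measure is viability normalised to DMSO, either at the top concentration or as trapezoidal area under the curve.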
# SB.mhdgc-1 [2] = assay: as above; details: SB.mhdgc-1 (hereditary c.1380delA CDH1 gastric cancer)
# In short: as §1
# SB.msgc-1 [3] = assay: viability at highest tested concentration (MAXR) relative to DMSO; higher = less cytotoxic; details: SB.msgc-1 (sporadic gastric cancer)
# In short: as §1
# SB.mhdgc-1 [4] = assay: as above; details: SB.mhdgc-1 (hereditary c.1380delA CDH1 gastric cancer)
# In short: as §1
Structure (SMILES),area under the dose-response curve (SB.msgc-1 [1]),area under the dose-response curve (SB.mhdgc-1 [2]),viability (SB.msgc-1 [3]),viability (SB.mhdgc-1 [4])
O=C(CCCN1CCC(O)(c2ccc(Cl)cc2)CC1)c1ccc(F)cc1 [Haloperidol] (top concentration 46.0829 µM),530,497,97%,34%
N[C@@H](Cc1ccc(O)c(O)c1)C(=O)O [Levodopa] (top concentration 46.0829 µM),571,583,116%,118%
NC\1=N\C(=O)N(\C=C1)[C@@H]2O[C@H](CO)[C@@H](O)[C@H]2O [Cytidine] (top concentration 46.0829 µM),567,499,124%,109%
CCCCC[C@H](O)/C=C/[C@H]1[C@H](O)CC(=O)[C@@H]1C/C=C\CCCC(=O)O [Prostaglandin E2] (top concentration 46.0829 µM),522,544,82.4%,127%
C[C@@H]1CCN(C(=O)CC#N)C[C@@H]1N(C)c1ncnc2[nH]ccc12 [Tofacitinib] (top concentration 46.0829 µM),484,495,98.8%,82.7%
C[C@H](O)[C@H]1[C@@H]2[C@H](C)C(=C(\N2C1=O)C(O)=O)/S[C@@H]3CN[C@H](CN[S+](N)([O-])=O)C3 [Doripenem] (top concentration 46.0829 µM),566,496,108%,89%
CCNC(=O)Nc1ccc2ncc(Nc3ccc(C)cc3)nc2n1 (top concentration 46.0829 µM),347,307,27%,20.8%
O=C(O)CCC1CCC(c2cc(F)ccc2F)([S+](=O)([O-])c2ccc(Cl)cc2)CC1 (configuration not stated) [MK-0752] (top concentration 46.0829 µM),479,435,58.6%,78.9%
Oc1ccc(OCc2ccccc2)cc1 [Monobenzone] (top concentration 46.0829 µM),568,588,96.2%,83.9%
CC(=O)N1CCN(c2ccc(OCc3nn(C)c(C)c3-c3cccc4c(CCCOc5cccc6ccccc56)c(C(=O)O)n(Cc5cccnc5)c34)cc2)CC1 (top concentration 46.0829 µM),355,321,2.94%,0.82%
COc1cc([C@@H]2c3cc4c(cc3[C@@H](O[C@@H]3O[C@@H]5CO[C@@H](c6cccs6)O[C@H]5[C@H](O)[C@H]3O)[C@H]3COC(=O)[C@H]23)OCO4)cc(OC)c1O [Teniposide] (top concentration 46.0829 µM),344,243,26.6%,18.7%
NC(=O)c1ccc(-c2nc(-c3ccc4c(c3)OCCO4)c(-c3ccccn3)[nH]2)cc1 [D-4476] (top concentration 46.0829 µM),512,584,42.5%,85.8%
CC1COC2=C3N1\C=C(C(O)=O)/C(=O)C3=CC(=C2N4CCN(C)CC4)F (configuration not stated) [Ofloxacin] (top concentration 46.0829 µM),568,529,78.1%,92.4%
Cc1nc(N)ncc1-c1nc(N2CCOCC2)c2sc(C(C)(C)O)cc2n1 [GNE-490] (top concentration 46.0829 µM),321,344,49.4%,14.9%
NC(=O)C1CCCc2c1[nH]c1ccc(Cl)cc21 (configuration not stated) [EX-527] (top concentration 46.0829 µM),489,521,69.3%,70.6%
CCOC(=O)[C@H](CCc1ccccc1)N[C@@H](C)C(=O)N1CCC[C@H]1C(=O)O [Enalapril maleate] (top concentration 46.0829 µM),577,504,82.3%,73%
COc1cc2nccc(Oc3ccc(NC(=O)Nc4ccc(F)cc4F)c(F)c3)c2cc1OC [KI-8751] (top concentration 46.0829 µM),484,490,57.2%,26.1%
Cc1cccc(-c2[nH]c(C(C)(C)C)nc2-c2ccc3c(c2)OCO3)n1 (top concentration 46.0829 µM),457,512,22.8%,7.36%
COc1cc(C(=O)N2CCC(N3CCN(C)CC3)CC2)ccc1Nc1ncc2c(n1)N(C)c1ccccc1C(=O)N2C [LRRK2-IN-1] (top concentration 46.0829 µM),423,483,13.7%,35.1%
C[C@@H](N)C1CC[C@@H](CC1)C(=O)NC2=CC=NC=C2 (some centres not stated) (top concentration 46.0829 µM),577,494,108%,83.4%
C[C@]12CC[C@H]3[C@@H](CC[C@@]45O[C@@H]4C(O)=C(C#N)C[C@]35C)[C@@H]1CC[C@@H]2O [Trilostane] (top concentration 46.0829 µM),374,478,39.4%,13%
Nc1ncnc2c1c(-c1cnc3[nH]ccc3c1)nn2C1CCCC1 [PP-121] (top concentration 46.0829 µM),431,361,17.2%,7.09%
Cc1ccc(C(=O)Nc2ccc([S+](=O)([O-])O)c3cc([S+](=O)([O-])O)cc([S+](=O)([O-])O)c23)cc1NC(=O)c1cccc(NC(=O)Nc2cccc(C(=O)Nc3cc(C(=O)Nc4ccc([S+](=O)([O-])O)c5cc([S+](=O)([O-])O)cc([S+](=O)([O-])O)c45)ccc3C)c2)c1 [Suramin sodium] (top concentration 46.0829 µM),474,480,70%,89.1%
